From patent US12391721B2, “Crystal forms of beta-nicotinamide mononucleotide” (Metro International Biotech, LLC, priority 2015, dated 2025)

Assays:
Assay type in all cases: physicochemical
[1] = Dynamic vapor sorption (DVS) of amorphous NMN; details: FIG. 7
Description: When a sample of amorphous NMN is exposed to atmospheric humidity, the sample goes through phases. […] The amorphous sample is hygroscopic until it deliquesces and starts crystallizing.

[2] = Three month stability and forced degradation study: particle morphology by polarised light microscopy (PLM); details: Replicate 1
Protocol: Samples were studied on a Leica LM/DM polarised light microscope with a digital video camera for image capture. A small amount of each sample was placed on a glass slide, 15 mounted in immersion oil and covered with a glass slip, the individual particles being separated as well as possible. The sample was viewed with appropriate magnification and partially polarised light, coupled to a λ false-color filter.
(§1) […] The samples were prepared in duplicate with an offset of 2 weeks. Each replicate was stored in a different container.
(§2) Replicate 1 was charged in an open HPLC vial that was placed in a sealed scintillation vial containing a saturated solution of the relevant inorganic salt (Table 2). These samples were analysed by HPLC, 1H NMR, XRPD and Polarized Light Microscopy (PLM) at 4, 8, and 12 week time points.

[3] = Three month stability and forced degradation study: visual observations of stored solids
Protocol: as §1, §2
(§3) Replicate 2 was stored in sealed box with a recipient containing a saturated solution of the relevant inorganic salt (Table 2). These samples were analysed by HPLC at 2, 6, 10 and 12 week time points. Samples at 25° C./0% RH were stored in a sealed box containing a desiccant agent (P2O5).

[4] = Three month stability and forced degradation study: HPLC purity of stored solids; details: for Known Impurity* (%) (nicotinamide, RRT = 1.73 min) / Purity (%): HPLC
Protocol: Purity analysis was performed on an Agilent HP1100 series system equipped with a diode array detector and using ChemStation software vB.04.03 using the method detailed below in Table 1.
as §1, §2, §3

[5] = Three month stability and forced degradation study: solid form by XRPD after storage; details: for XRPD: Replicate 1
Protocol: X-Ray Powder Diffraction patterns were collected on a Bruker D8 diffractometer using Cu Kα radiation (40 kV, 40 mA), θ-2θ goniometer, and divergence of V4 and receiving slits, a Ge monochromator and a Lynxeye detector. The instrument is performance checked using a certified Corundum standard (NIST 1976). The software used for data collection was Diffrac Plus XRD Commander v2.6.1 and the data were analysed and presented using Diffrac Plus EVA v15.0.0.0.
Samples were run under ambient conditions as flat plate specimens using powder as received. The sample was gently packed into a cavity cut into polished, zero-background (510) silicon wafer. The sample was rotated in its own plane during analysis. The details of the data collection are: • Angular range: 2 to 42° 2θ • Step size: 0.05° 2θ • Collection time: 0.5 s/step HPLC
as §1, §2

[6] = solid stored 25° C., 0% RH, 4 weeks
[7] = solid stored 25° C., 0% RH, 8 weeks
[8] = solid stored 25° C., 0% RH, 12 weeks
[9] = solid stored 25° C., 60% RH, 4 weeks
[10] = solid stored 25° C., 60% RH, 12 weeks
[11] = solid stored 25° C., 97% RH, 4 weeks
[12] = solid stored 40° C., 75% RH, 4 weeks
[13] = solid stored 25° C., 0% RH, 4 weeks, Replicate 1
[14] = solid stored 25° C., 0% RH, 8 weeks, Replicate 1
[15] = solid stored 25° C., 0% RH, 12 weeks, Replicate 1
[16] = solid stored 25° C., 60% RH, 2 weeks, Replicate 2
[17] = solid stored 25° C., 60% RH, 4 weeks, Replicate 1
[18] = solid stored 25° C., 60% RH, 6 weeks, Replicate 2
[19] = solid stored 25° C., 60% RH, 8 weeks, Replicate 1
[20] = solid stored 25° C., 60% RH, 10 weeks, Replicate 2
[21] = solid stored 25° C., 60% RH, 12 weeks, Replicate 1
[22] = solid stored 25° C., 60% RH, 12 weeks, Replicate 2
[23] = solid stored 25° C., 97% RH, 2 weeks, Replicate 2
[24] = solid stored 25° C., 97% RH, 4 weeks, Replicate 1
[25] = solid stored 25° C., 97% RH, 6 weeks, Replicate 2
[26] = solid stored 25° C., 97% RH, 10 weeks, Replicate 2
[27] = solid stored 25° C., 97% RH, 12 weeks, Replicate 2
[28] = solid stored 40° C., 75% RH, 2 weeks, Replicate 2
[29] = solid stored 40° C., 75% RH, 4 weeks, Replicate 1
[30] = solid stored 40° C., 75% RH, 6 weeks, Replicate 2
[31] = solid stored 40° C., 75% RH, 8 weeks, Replicate 1
[32] = solid stored 40° C., 75% RH, 10 weeks, Replicate 2
[33] = solid stored 40° C., 75% RH, 12 weeks, Replicate 2
[34] = solid stored 25° C., 0% RH, 12 weeks, Replicate 1, listed as Amorphous material
[35] = solid stored 40° C., 75% RH, 12 weeks, Replicate 2, listed as amorphous material
[36] = t = 0, baseline of the stability study, listed as J07086

NC(=O)c1ccc[n+]([C@@H]2O[C@H](COP(=O)([O-])O)[C@@H](O)[C@H]2O)c1 [Form J07087, β-nicotinamide mononucleotide, reference compound]
reversible mass pick up (DVS) ([1]; once crystallised, double cycle): up to 9 % w/w
behaviour on exposure to atmospheric humidity (DVS change in mass plot) ([1]; until it deliquesces and starts crystallizing): hygroscopic
PLM [2, 6]: Unchanged
PLM [2, 7]: Unchanged
PLM [2, 8]: Unchanged
PLM [2, 9]: acicular
PLM [2, 10]: acicular
PLM [2, 11]: acicular
PLM [2, 12]: acicular
Observations [3, 13]: white solid
Observations [3, 14]: white solid
Observations [3, 15]: white solid
Observations [3, 16]: light yellow solid,
Observations [3, 17]: brown solid
Observations [3, 18]: light brown,
Observations [3, 19]: brown solid,
Observations [3, 20]: light brown,
Observations [3, 21]: brown solid,
Observations [3, 22]: light brown,
Observations [3, 23]: white compacted
Observations [3, 24]: white solid,
Observations [3, 25]: white solid,
Observations ([3]; solid stored 25° C., 97% RH, 8 weeks, Replicate 1): partially
Observations [3, 26]: white solid,
Observations ([3]; solid stored 25° C., 97% RH, 12 weeks, Replicate 1): deliquesced.
Observations [3, 27]: white solid,
Observations [3, 28]: brown compacted
Observations [3, 29]: brown
Observations [3, 30]: dark brown solid
Observations [3, 31]: brown
Observations [3, 32]: black solid
Observations ([3]; solid stored 40° C., 75% RH, 12 weeks, Replicate 1): black solid,
Observations [3, 33]: black solid,
Known Impurity* (%) (nicotinamide, RRT = 1.73 min) [4, 13]: 1.81%
Purity (%) [4, 13]: 96.9%
Known Impurity* (%) (nicotinamide, RRT = 1.73 min) [4, 14]: 2.44%
Purity (%) [4, 14]: 95.8%
Known Impurity* (%) (nicotinamide, RRT = 1.73 min) [4, 15]: 2.81%
Purity (%) [4, 15]: 95.0%
Known Impurity* (%) (nicotinamide, RRT = 1.73 min) [4, 34]: 2.8%
Purity (%) [4, 34]: 95.5%
Known Impurity* (%) (nicotinamide, RRT = 1.73 min) [4, 16]: 2.14%
Purity (%) [4, 16]: 97.4%
Known Impurity* (%) (nicotinamide, RRT = 1.73 min) [4, 17]: 2.13%
Purity (%) [4, 17]: 96.9%
Known Impurity* (%) (nicotinamide, RRT = 1.73 min) [4, 18]: 2.06%
Purity (%) [4, 18]: 97.4%
Known Impurity* (%) (nicotinamide, RRT = 1.73 min) [4, 19]: 3.46%
Purity (%) [4, 19]: 95.2%
Known Impurity* (%) (nicotinamide, RRT = 1.73 min) [4, 20]: 2.92%
Purity (%) [4, 20]: 96.0%
Known Impurity* (%) (nicotinamide, RRT = 1.73 min) [4, 21]: 3.46%
Purity (%) [4, 21]: 95.7%
Known Impurity* (%) (nicotinamide, RRT = 1.73 min) [4, 22]: 2.32%
Purity (%) [4, 22]: 96.2%
Known Impurity* (%) (nicotinamide, RRT = 1.73 min) [4, 23]: 1.79%
Purity (%) [4, 23]: 97.8%
Known Impurity* (%) (nicotinamide, RRT = 1.73 min) [4, 24]: 2.44%
Purity (%) [4, 24]: 97.1%
Known Impurity* (%) (nicotinamide, RRT = 1.73 min) [4, 25]: 3.01%
Purity (%) [4, 25]: 96.5%
Known Impurity* (%) (nicotinamide, RRT = 1.73 min) [4, 26]: 4.39%
Purity (%) [4, 26]: 94.9%
Known Impurity* (%) (nicotinamide, RRT = 1.73 min) [4, 27]: 7.02%
Purity (%) [4, 27]: 91.5%
Known Impurity* (%) (nicotinamide, RRT = 1.73 min) [4, 28]: 4.61%
Purity (%) [4, 28]: 94.6%
Known Impurity* (%) (nicotinamide, RRT = 1.73 min) [4, 29]: 6.70%
Purity (%) [4, 29]: 91.3%
Known Impurity* (%) (nicotinamide, RRT = 1.73 min) [4, 30]: 8.22%
Purity (%) [4, 30]: 88.0%
Known Impurity* (%) (nicotinamide, RRT = 1.73 min) [4, 31]: 14.23%
Purity (%) [4, 31]: 76.9%
Known Impurity* (%) (nicotinamide, RRT = 1.73 min) [4, 32]: 16.18%
Purity (%) [4, 32]: 75.9%
Known Impurity* (%) (nicotinamide, RRT = 1.73 min) [4, 33]: 20.60%
Purity (%) [4, 33]: ~67.5^$ %
Known Impurity* (%) (nicotinamide, RRT = 1.73 min) [4, 35]: 20.6%
Purity (%) [4, 35]: 67.5%
HPLC purity profile, Area % of main peak (RRT 1.00) [4, 36]: 98.56 Area %
HPLC purity profile, Area % of peak at RRT 1.76 / 1.74 (nicotinamide) [4, 36]: 0.87 Area %
Purity ([4]; time 0, listed as Amorphous material): 98.2%
solid form and particle morphology after storage ([5]; 12 weeks at 25° C., 0% RH): remained unchanged
XRPD [5, 6]: Unchanged
XRPD [5, 7]: Unchanged
XRPD [5, 8]: Unchanged
XRPD [5, 9]: Form 1
XRPD ([5]; solid stored 25° C., 60% RH, 8 weeks): Form 1
XRPD [5, 10]: Form 1
XRPD [5, 11]: Form 1
XRPD [5, 12]: Form 1
XRPD ([5]; solid stored 40° C., 75% RH, 8 weeks): Form 1
XRPD ([5]; solid stored 40° C., 75% RH, 12 weeks): Form 1
solid form on storage under humidity ([5]; stored under 25% or greater relative humidity, gives Form 1 with acicular morphology): crystallized
